Laboratory results from US5444155A, “Molecules with antibody combining sites that induce asymmetry” (The Scripps Research Institute, priority 1991, dated 1995).
Where two headings read alike, the source gives them in different places.

How the values were obtained:
[1] = system: monoclonal antibody (catalytic receptor) produced by hybridoma 37E8, ATCC HB 10868; assay type: biochemical, mouse
[2] = target: T1, Butyl Cholinesterase EC 3.1.1.8, from horse serum (Sigma) (Equus caballus, UniProt P81908); test: Hydrolysis of Compound 1 by authentic butyl cholinesterase, assayed by gas chromatography; assay type: biochemical
T1 construct: purchased Sigma Chemical Co., St. Louis
T1 sequence (P81908 whole entry): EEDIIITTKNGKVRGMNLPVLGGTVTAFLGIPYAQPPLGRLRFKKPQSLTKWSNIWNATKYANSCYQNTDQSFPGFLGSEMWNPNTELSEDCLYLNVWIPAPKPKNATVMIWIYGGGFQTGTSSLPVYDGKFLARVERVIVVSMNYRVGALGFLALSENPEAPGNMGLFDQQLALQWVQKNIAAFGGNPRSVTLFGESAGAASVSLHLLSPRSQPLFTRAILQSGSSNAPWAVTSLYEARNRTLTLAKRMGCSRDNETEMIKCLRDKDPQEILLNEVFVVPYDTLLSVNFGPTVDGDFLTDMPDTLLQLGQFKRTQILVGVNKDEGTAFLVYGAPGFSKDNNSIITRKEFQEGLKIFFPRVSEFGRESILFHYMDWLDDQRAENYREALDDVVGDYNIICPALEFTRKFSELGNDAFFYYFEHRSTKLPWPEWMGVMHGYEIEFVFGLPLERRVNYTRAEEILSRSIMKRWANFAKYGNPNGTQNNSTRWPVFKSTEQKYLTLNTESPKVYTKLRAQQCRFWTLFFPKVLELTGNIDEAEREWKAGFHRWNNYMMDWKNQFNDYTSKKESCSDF
Experimental: The production of Compound 2 by a monoclonal antibody composition of this invention was assayed at a concentration of 10 μM monoclonal antibody and 1 mM Compound 1 in pH 8.0 ATE buffer (0.52M ACES, 0.52M Tris, 0.01M ethanolamine) at 37° C. The initial rate of hydrolysis of Compound 1 by the monoclonal antibodies produced by hybridoma 37E8 followed Michaelis-Menten kinetics (Table 1 hereinafter).
The conditions used for this study were as follows. Monoclonal antibodies produced by hybridoma 37E8 (10 μM) were added to a solution of 800 μM Compound 1 and 25 μM Compound C. Under these conditions, the substrate concentration was at saturation for the monoclonal antibody (4.5Km) and at approximately Km for either cholinesterase.
^b EC 3.1.1.8. From horse serum (Sigma Chemical Co., St. Louis),
All assays consisted of determining the amount of Compound 2 by gas chromatography analysis (Hewlett Packard 5890A, carbowax 30 m, 0.53 mm bore, capillary column) with ethyl levulinate as an internal standard.

[3] = target: Acetyl Cholinesterase EC 3.1.1.7, Type VS, electric eel (Sigma) (Electrophorus electricus, UniProt O42275); test: Hydrolysis of Compound 1 by authentic acetyl cholinesterase, assayed by gas chromatography
Sequence of Acetyl Cholinesterase EC 3.1.1.7, Type VS, electric eel (Sigma) (O42275 24-633): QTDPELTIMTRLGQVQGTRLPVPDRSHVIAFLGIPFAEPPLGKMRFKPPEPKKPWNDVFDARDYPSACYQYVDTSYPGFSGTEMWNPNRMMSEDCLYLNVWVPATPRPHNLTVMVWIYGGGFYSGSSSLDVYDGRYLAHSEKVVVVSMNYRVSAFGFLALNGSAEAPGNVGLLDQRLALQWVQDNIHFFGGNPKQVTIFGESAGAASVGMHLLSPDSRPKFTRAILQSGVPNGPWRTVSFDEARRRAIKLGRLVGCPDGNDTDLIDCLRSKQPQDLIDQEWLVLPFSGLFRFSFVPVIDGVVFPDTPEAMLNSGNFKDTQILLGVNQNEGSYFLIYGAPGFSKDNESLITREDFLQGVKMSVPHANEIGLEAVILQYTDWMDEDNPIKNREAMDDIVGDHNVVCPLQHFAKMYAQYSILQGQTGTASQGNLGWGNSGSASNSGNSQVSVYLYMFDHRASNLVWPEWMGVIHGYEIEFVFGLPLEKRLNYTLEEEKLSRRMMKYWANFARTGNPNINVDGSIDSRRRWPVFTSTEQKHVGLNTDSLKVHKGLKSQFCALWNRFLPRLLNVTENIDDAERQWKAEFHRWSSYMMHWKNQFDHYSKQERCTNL

Compound: CC(=O)O[C@@H]1C=C[C@H](OC(C)=O)C1 [Compound 1, cis-3,5-diactoxycyclopent-1-ene]
- kcat (hydrolysis of Compound 1) ([1]; pH 8): 0.007
- Km ([1]; pH 8, read-out: Km (hydrolysis of Compound 1)): 177 µM

Compound: CC(=O)O[C@H]1C=C[C@@H](OP(=O)(O)CCCCCC(=O)O)C1 [Compound C]
- inhibition by free Compound C ([2]; 800 μM Compound 1, 25 μM Compound C): no inhibition
- Ki ([2]; 0.0117 units enzyme used, read-out: ki (hydrolysis of Compound 1, inhibitor Compound C)): 800 µM
- inhibition of the hydrolytic reaction by free Compound C [1]: extensive inhibition
- Ki ([1]; read-out: Ki (free Compound C)): 7 µM
- Ki ([1]; read-out: ki (inhibition of hydrolysis of Compound 1 by free Compound C)): 7 µM
- Ki [3]: 630 µM
- inhibition by free Compound C [3]: no inhibition
